Series [1] has as its system Washed platelets. Nature of the series: Platelet activation markers in washed platelets (flow cytometry). Format: cell-based, Human. Particulars: collagen 2 μg/mL; compounds 1, 5 and 10 μM; vs activated control. The method, then: (§1) Human platelet purification. The blood sample was obtained from voluntary donors (10 days without antiplatelet medication) who agreed to participate after signing informed consent (Scientific Ethics Committee of the University of Talca N° 04–2022). Briefly, blood anticoagulated with acid-citrate-dextrose (ACD) was obtained in a 4:1 v/v ratio. The sample was centrifuged for 12 min at 250 g to obtain platelet-rich plasma (PRP). Subsequently, the PRP was centrifuged for 8 min at 900 g to obtain the platelet pellet. The plasma supernatant was removed, and the platelets were resuspended in Tyrodes buffer without calcium plus ACD in a ratio of 5:1 v/v. The platelets were centrifuged once more for 8 min at 900 g and the pellet was resuspended in Tyrodes buffer without calcium. Finally, the platelets were counted (Mindray BC-3000 Plus hematology counter, Japan), adjusted to the desired concentration, and used within 3 h.
Platelet activation markers. Washed platelets (200-250 × 10^6 platelets/mL) were incubated with the compounds (1, 5 and 10 μM), then activated with collagen 2 μg/mL and incubated for 5 min at 37 °C. Aliquots of the reaction were then collected and labeled separately with human antibodies (BD Biosciences, San José, CA, USA) for P-selectin, CD63, activated GPIIb/IIIa (PAC-1), and fibrinogen to assess the levels of each marker on the platelet membrane. The sample was acquired using the BD Facs Lyric flow cytometer (BD Biosciences, USA). Representative dot plots are available in Supplementary Figures 8-11 and 20-23. In the case of the activation markers P-selectin and bound fibrinogen in PRP, the same procedure for washed platelets was performed with representative dot plots available in Supplementary Figs. 15 and 16. The platelet population was identified with anti-CD61-PE or anti-CD61-FITC (BD Biosciences, San José, CA, USA).
(A flow cytometer gives signals particle by particle.)

In series [2] the test system is Washed platelets. Nature of the series: Cellular apoptosis (externalization of phosphatidylserine, annexin V). Format: cell-based, Human. To be noted: 1, 2, 5, 10 and 20 μM; 15 min. The method, then:
as §1
Cellular apoptosis (externalization of phosphatidylserine). Washed platelets (200-250 × 10^6 platelets/mL) were incubated with the NP4 compound (1, 2, 5, 10 and 20 μM) for 15 min at 37 °C. Then 15 μL of the reaction was mixed with 25 μL of annexin V binding buffer (1x) and labeled with 2 μL of annexin V FITC (BD Pharmingen, FITC Annexin V Apoptosis Detection Kit I). […]

The test system of series [3] is Washed platelets. Nature of the series: Platelet aggregation in washed platelets (aggregometer). To be noted: for IC50: Homo sapiens, Platelet. The class given is cell-based, Human. The method, then:
as §1
Platelet aggregation. Washed platelets (200-250 × 10^6 platelets/mL) were preincubated with 2 mM CaCl2 and then with the compounds under study for 5 min at 37 °C in the aggregometer (Agg RAM- Helena Biosciences). Aggregation was initiated with the agonists: collagen 2 μg/mL; convulxin 20 ng/mL; TRAP-6 (Thrombin receptor activator peptide 6) 5 μM; PMA (Phorbol myristate acetate) 100 nM or arachidonic acid 250 μg/mL. The aggregation curve was evaluated for 5 min at 37 °C in shaking at 1000 rpm.

For series [4], the system named is Washed platelets. Nature of the series: Intraplatelet calcium levels (Fluo-4-AM). Format: cell-based, Human. To be noted: compounds 1, 5 and 10 μM, 10 min. The method, then:
as §1
Intraplatelet calcium levels. Washed platelets (200-250 × 10^6 platelets/mL) were labeled Fluo-4-AM probe with 0.5 μM and incubated for 20 min at room temperature protected from light. Subsequently, platelets were adjusted to a count of 50 × 10^6 platelets/mL, and compounds (1, 5, and 10 μM) were added and incubated for 10 min at 37 °C. The sample was acquired in the BD Facs Lyric flow cytometer (BD Biosciences, USA). Representative dot plots are available in Supplementary Figs. 13 and 26. As a control for increased intracellular calcium, P-trifluoromethoxyphenylhydrazone carbonylcyanide (FCCP) 1 μM was used.

Read-outs that look alike come from different tables or passages of the source. Where only a bound is given, the exact number is not on record here.

The results in this text go back to PMC11002875, “Linking triphenylphosphonium cation to a bicyclic hydroquinone improves their antiplatelet effect via the regulation of mitochondrial function” (Redox Biology, 2024).

As a reminder, the melting point is the temperature, or range, at which the solid turns liquid. What is called IC50 is the concentration at which inhibition is half-maximal. In the case of `Cc1c(C)c(O)c2c(c1O)C(=O)C(CCCC[P+](c1ccccc1)(c1ccccc1)c1ccccc1)=CC2(C)C.[Br-]` [NP4, (4-(5,8-dihydroxy-4,4,6,7-tetramethyl-1-oxo-1,4-dihydronaphthalen-2-yl)butyl)triphenyl phosphonium bromide], the melting point is 282 °C (dec.). Besides, in the series with Washed platelets [1], the “Bound fibrinogen platelet activation marker” value is “at the 10 μM concentration was able to significantly decrease”, the “CD63 platelet activation marker” value was “at the 10 μM concentration was able to significantly decrease”, the “P-selectin platelet activation marker” value was “at the 10 μM concentration was able to significantly decrease” and the “PAC-1 (activated GPIIb/IIIa) platelet activation marker” value was “at the 10 μM concentration was able to significantly decrease”. Besides, the “Apoptosis (phosphatidylserine externalization)” value with Washed platelets [2] was “none of the concentrations evaluated for NP4 showed significant effects”. The half-maximal inhibitory concentration (IC50) in the series with Washed platelets [3] (read-out: IC50 for platelet aggregation, Convulxin) came to 4.45 ± 0.65 µM. Moreover, in the series on Washed platelets [3] (PMA 100 nM, washed platelets, read-out: IC50 for platelet aggregation, PMA), the IC50 is > 20 µM. Also, the IC50 in the series on Washed platelets [3] (TRAP-6 5 μM, washed platelets, read-out: IC50 for platelet aggregation, TRAP-6) stood at 7.4 ± 0.82 µM. Moreover, the IC50 in the series on Washed platelets [3] (arachidonic acid 250 μg/mL, washed platelets, read-out: IC50 for platelet aggregation, Arachidonic Acid) was > 20 µM. In addition, the IC50 with Washed platelets [3] (collagen 2 μg/mL, washed platelets, read-out: IC50 for platelet aggregation, Collagen) turned out to be 2.62 ± 0.91 µM. Moreover, in the series on Washed platelets [3] (all tested concentrations, arachidonic acid 250 μg/mL), the “Effect on platelet aggregation vs vehicle” value (“Effect … vs vehicle” below) was “None of the NP4 concentrations showed any effect”. The “Effect … vs vehicle” value in the series with Washed platelets [3] (compound 2 μM, collagen 2 μg/mL) is reported as “significant effect”. Besides, in the series on Washed platelets [3] (compound 5 μM, Convulxin 20 ng/mL), the “Effect … vs vehicle” value is given as “had an effect”. Besides, the “Effect … vs vehicle” value with Washed platelets [3] (compound 5 μM, TRAP-6 5 μM) is “had an effect”. Moreover, in the series on Washed platelets [3] (compound 5 μM, collagen 2 μg/mL), the “Effect … vs vehicle” value is “had an effect”. In the series on Washed platelets [3] (compound 10 μM, Convulxin 20 ng/mL), the “Effect … vs vehicle” value was “significantly decreases”. Moreover, the “Effect … vs vehicle” value in the series on Washed platelets [3] (compound 10 μM, PMA 100 nM) is on record as “significantly decreases”. Moreover, the “Effect … vs vehicle” value with Washed platelets [3] (compound 10 μM, TRAP-6 5 μM) is given as “significantly decreases”. Further, the “Effect … vs vehicle” value in the series with Washed platelets [3] (compound 10 μM, collagen 2 μg/mL) is listed as “significantly decreases”. Moreover, the Intraplatelet calcium levels result with Washed platelets [4] is reported as “increase it significantly”.
